# Test results taken from PubChem BioAssay AID1259407 (Chemical Carcinogenesis Research Information System (CCRIS), 2018).
# Activity calls are given as the source filed them. How the calls were made is not given here.
# Test system: CCRIS mutagenicity, Ames/micronucleus/aberration tests
# Assay: CCRIS mutagenicity studies
# [1] = Test System: AMES SALMONELLA TYPHIMURIUM, Strain/Indicator: TA98, Metabolic Activation: NONE, Method: STANDARD PLATE
# [2] = Test System: AMES SALMONELLA TYPHIMURIUM, Strain/Indicator: TA100, Metabolic Activation: NONE, Method: STANDARD PLATE
# [3] = Test System: AMES SALMONELLA TYPHIMURIUM, Strain/Indicator: TA100, Metabolic Activation: RAT, LIVER, S-9, AROCLOR 1254, Method: STANDARD PLATE
smiles,measurement,setting,value
CC1(C)CO1,mutagenic call,"Test System: AMES SALMONELLA TYPHIMURIUM, Strain/Indicator: TA100, Metabolic Activation: NONE, Method: FLASK ASSAY",active; positive
same,mutagenic call,"Test System: AMES SALMONELLA TYPHIMURIUM, Strain/Indicator: TA100, Metabolic Activation: NONE, Method: FLASK VAPORIZATION",active; positive
same,mutagenic call,"Test System: AMES SALMONELLA TYPHIMURIUM, Strain/Indicator: TA100, Metabolic Activation: RAT, LIVER, S-9, AROCLOR 1254, Method: FLASK ASSAY",active; positive
same,mutagenic call,"Test System: AMES SALMONELLA TYPHIMURIUM, Strain/Indicator: TA100, Metabolic Activation: RAT, LIVER, S-9, AROCLOR 1254, Method: FLASK VAPORIZATION",active; positive
same,mutagenic call,"Test System: AMES SALMONELLA TYPHIMURIUM, Strain/Indicator: TA102, Metabolic Activation: NONE, Method: FLASK ASSAY",active; positive
same,mutagenic call,"Test System: AMES SALMONELLA TYPHIMURIUM, Strain/Indicator: TA102, Metabolic Activation: RAT, LIVER, S-9, AROCLOR 1254, Method: FLASK ASSAY",active; positive
same,mutagenic call,"Test System: AMES SALMONELLA TYPHIMURIUM, Strain/Indicator: TA1535, Metabolic Activation: NONE, Method: FLASK ASSAY",active; positive
same,mutagenic call,"Test System: AMES SALMONELLA TYPHIMURIUM, Strain/Indicator: TA1535, Metabolic Activation: NONE, Method: FLASK VAPORIZATION",active; positive
same,mutagenic call,"Test System: AMES SALMONELLA TYPHIMURIUM, Strain/Indicator: TA1535, Metabolic Activation: RAT, LIVER, S-9, AROCLOR 1254, Method: FLASK ASSAY",active; positive
same,mutagenic call,"Test System: AMES SALMONELLA TYPHIMURIUM, Strain/Indicator: TA1535, Metabolic Activation: RAT, LIVER, S-9, AROCLOR 1254, Method: FLASK VAPORIZATION",active; positive
CCCCCN(CCCCC)N=O,mutagenic call,"Test System: AMES SALMONELLA TYPHIMURIUM, Strain/Indicator: TA100, Metabolic Activation: RAT, LIVER, S-9, KC500 OR PHENOBARBITAL, Method: LIQUID SUSPENSION",active; positive
same,mutagenic call,"Test System: AMES SALMONELLA TYPHIMURIUM, Strain/Indicator: TA1530, Metabolic Activation: RAT, LIVER, S-9, Method: STANDARD PLATE",active; positive
same,mutagenic call,"Test System: CHINESE HAMSTER V-79, Strain/Indicator: V-79/8-AZAGUANINE, Metabolic Activation: CELL-MEDIATED, Method: STANDARD PLATE",active; positive
CC1(C)C[C@@H]2[C@@]3(C(=O)O)C[C@@]3(C=O)C(C=O)=C[C@]2(O)C1,mutagenic call,"Test System: CHINESE HAMSTER V-79, Strain/Indicator: V-79/6-THIOGUANINE (HGPRT), Metabolic Activation: NONE",inactive; negative
O=BOO,mutagenic call,"Test System: AMES SALMONELLA TYPHIMURIUM, Strain/Indicator: TA102, Metabolic Activation: NONE, Method: STANDARD PLATE",active; positive
same,mutagenic call,"Test System: E. COLI, Strain/Indicator: WP2 (PKM101), Metabolic Activation: NONE, Method: STANDARD PLATE",active; positive
same,mutagenic call,"Test System: E. COLI, Strain/Indicator: WP2 UVRA (PKM101), Metabolic Activation: NONE, Method: STANDARD PLATE",active; positive
O=[N+]([O-])c1ccc(-c2nc(N(CCO)CCO)c3ccccc3n2)s1,mutagenic call,[1],active; positive
same,mutagenic call,[2],active; positive
Cc1c([N+](=O)[O-])c2ccccc2c2ccc3ccccc3c12,mutagenic call,"Test System: AMES SALMONELLA TYPHIMURIUM, Strain/Indicator: TA98, Metabolic Activation: NONE, Method: PREINCUBATION",inactive; negative
same,mutagenic call,"Test System: AMES SALMONELLA TYPHIMURIUM, Strain/Indicator: TA98, Metabolic Activation: RAT, LIVER, S-9, Method: PREINCUBATION",active; positive
same,mutagenic call,"Test System: AMES SALMONELLA TYPHIMURIUM, Strain/Indicator: TA100, Metabolic Activation: NONE, Method: PREINCUBATION",inactive; negative
same,mutagenic call,[2],inactive; negative
same,mutagenic call,[3],active; positive
same,mutagenic call,"Test System: AMES SALMONELLA TYPHIMURIUM, Strain/Indicator: TA100, Metabolic Activation: RAT, LIVER, S-9, Method: PREINCUBATION",active; positive
CC(C)(C)NCC(O)c1ccc(O)c(NC(N)=O)c1 (configuration not stated),mutagenic call,[1],inactive; negative
same,mutagenic call,"Test System: AMES SALMONELLA TYPHIMURIUM, Strain/Indicator: TA98, Metabolic Activation: RAT, LIVER, S-9, AROCLOR 1254, Method: STANDARD PLATE",inactive; negative
same,mutagenic call,[2],inactive; negative
same,mutagenic call,[3],inactive; negative
O/N=C/C=N/O,mutagenic call,"Test System: AMES SALMONELLA TYPHIMURIUM, Strain/Indicator: TA102, Metabolic Activation: RAT, LIVER, S-9, PHENOBARBITAL AND 5,6-BENZOFLAVONE, Method: STANDARD PLATE",inactive; negative
same,mutagenic call,"Test System: AMES SALMONELLA TYPHIMURIUM, Strain/Indicator: TA2638, Metabolic Activation: RAT, LIVER, S-9, PHENOBARBITAL AND 5,6-BENZOFLAVONE, Method: STANDARD PLATE",inactive; negative
same,mutagenic call,"Test System: E. COLI, Strain/Indicator: WP2 (PKM101), Metabolic Activation: RAT, LIVER, S-9, PHENOBARBITAL AND 5,6-BENZOFLAVONE, Method: STANDARD PLATE",inactive; negative
same,mutagenic call,"Test System: E. COLI, Strain/Indicator: WP2 UVRA (PKM101), Metabolic Activation: RAT, LIVER, S-9, PHENOBARBITAL AND 5,6-BENZOFLAVONE, Method: STANDARD PLATE",active; positive
CCOC(=O)C(C)(C)Oc1ccc(Cl)cc1,mutagenic call,"End Point: In vitro micronucleus, Test System: Mouse lymphoma L5178Y cells, Metabolic Activation: None",active; positive
same,mutagenic call,"Test System: AMES SALMONELLA TYPHIMURIUM, Strain/Indicator: TA100(FR1), Metabolic Activation: NONE, Method: STANDARD PLATE",inactive; negative
same,mutagenic call,"Test System: AMES SALMONELLA TYPHIMURIUM, Strain/Indicator: TA100(FR1), Metabolic Activation: RAT, LIVER, S-9, PHENOBARBITAL AND 3-METHYLCHOLANTHRENE, Method: STANDARD PLATE",inactive; negative
same,mutagenic call,[2],inactive; negative
same,mutagenic call,"Test System: AMES SALMONELLA TYPHIMURIUM, Strain/Indicator: TA100, Metabolic Activation: RAT, LIVER, S-9, PHENOBARBITAL AND 3-METHYLCHOLANTHRENE, Method: STANDARD PLATE",inactive; negative
same,mutagenic call,"Test System: AMES SALMONELLA TYPHIMURIUM, Strain/Indicator: TA102, Metabolic Activation: RAT LIVER S-9, PHENOBARBITAL AND 5,6-BENZOFLAVONE, Method: STANDARD PLATE",inactive; negative
same,mutagenic call,"Test System: AMES SALMONELLA TYPHIMURIUM, Strain/Indicator: TA2638, Metabolic Activation: RAT LIVER S-9, PHENOBARBITAL AND 5,6-BENZOFLAVONE, Method: STANDARD PLATE",inactive; negative
same,mutagenic call,"Test System: CHINESE HAMSTER V-79, Strain/Indicator: V-79/6-THIOGUANINE, Metabolic Activation: NONE",inactive; negative
same,mutagenic call,"Test System: CHINESE HAMSTER V-79, Strain/Indicator: V-79/6-THIOGUANINE, Metabolic Activation: RAT, LIVER, HEPATOCYTES",inactive; negative
same,mutagenic call,"Test System: CHINESE HAMSTER V-79, Strain/Indicator: V-79/OUABAIN, Metabolic Activation: NONE",inactive; negative
same,mutagenic call,"Test System: CHINESE HAMSTER V-79, Strain/Indicator: V-79/OUABAIN, Metabolic Activation: RAT, LIVER, HEPATOCYTES",inactive; negative
same,mutagenic call,"Test System: E. COLI, Strain/Indicator: WP2 (PKM101), Metabolic Activation: RAT LIVER S-9, PHENOBARBITAL AND 5,6-BENZOFLAVONE, Method: STANDARD PLATE",inactive; negative
same,mutagenic call,"Test System: E. COLI, Strain/Indicator: WP2 UVRA (PKM101), Metabolic Activation: RAT LIVER S-9, PHENOBARBITAL AND 5,6-BENZOFLAVONE, Method: STANDARD PLATE",inactive; negative
same,mutagenic call,"Test System: Mouse lymphoma, Strain/Indicator: L5178Y (tk+/tk-)/Trifluorothymidine, Metabolic Activation: None, Method: Microtiter",inactive; negative
